Assay results as given in paper PMC12442245, “Activity Analysis of the P2X Receptor Antagonist PPADS against Signal Transducer and Activator of Transcription Proteins” (Chembiochem, 2025).

Target: T1, STAT5a (Homo sapiens, UniProt P42229)
T1 sequence (P42229 1-794): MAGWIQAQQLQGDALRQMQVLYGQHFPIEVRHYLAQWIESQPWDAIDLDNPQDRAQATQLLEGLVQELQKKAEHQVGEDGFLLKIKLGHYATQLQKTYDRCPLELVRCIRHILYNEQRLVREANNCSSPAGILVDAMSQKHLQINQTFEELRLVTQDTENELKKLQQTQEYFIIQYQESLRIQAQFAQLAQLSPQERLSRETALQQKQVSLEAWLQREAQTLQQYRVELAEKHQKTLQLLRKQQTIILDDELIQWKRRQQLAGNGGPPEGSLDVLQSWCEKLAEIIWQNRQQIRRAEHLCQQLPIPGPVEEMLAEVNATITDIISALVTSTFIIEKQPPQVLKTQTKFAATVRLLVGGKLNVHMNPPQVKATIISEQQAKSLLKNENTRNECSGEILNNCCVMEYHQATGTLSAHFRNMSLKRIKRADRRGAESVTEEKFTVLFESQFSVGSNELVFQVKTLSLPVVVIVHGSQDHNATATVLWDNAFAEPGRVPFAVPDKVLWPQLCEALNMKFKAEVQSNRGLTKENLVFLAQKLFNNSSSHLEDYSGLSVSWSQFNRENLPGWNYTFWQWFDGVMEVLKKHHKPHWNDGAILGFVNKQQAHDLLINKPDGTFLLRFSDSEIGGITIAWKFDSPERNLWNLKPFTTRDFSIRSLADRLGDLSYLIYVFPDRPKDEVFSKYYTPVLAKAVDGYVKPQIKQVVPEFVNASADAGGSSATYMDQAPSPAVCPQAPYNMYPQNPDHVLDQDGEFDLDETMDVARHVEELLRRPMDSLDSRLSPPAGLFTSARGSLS
Assay: HTRF assay, STAT5a
Type: binding
Conditions: STAT5a 110 nM, without reducing agent, 1 h
From the text: The azo dyes PPADS and iso‐PPADS have a deep red color in aqueous solution. […] In order to exclude this possibility, we established homogeneous time‐resolved fluorescence resonance energy transfer (HTRF) assays to confirm the degree of binding between STAT4, STAT5a, and STAT5b and the respective 5‐carboxyfluorescein‐labeled binding peptides used in the FP assay. In addition, an HTRF assay was established for STAT3, one of the STAT proteins targeted to a lesser extent in FP assays, as a specificity control (Figure 1B,C). The STAT protein constructs each contain a 6x‐His‐tag.^[ [15], [16], [17], [22] ^] A Tb^3+‐cryptate fused to an anti‐6x‐His antibody was chosen as the long‐lived fluorescent donor, while the carboxyfluorescein linked to the respective STAT‐binding peptides served as the acceptor (Figure 2A). Emission was measured with a time delay of 60 μs after excitation, allowing any initial compound fluorescence to decay beforehand. […]
Screening of chemical libraries comprising approximately 5000 known bioactive compounds in fluorescence polarization-based assays against phosphorylation-dependent protein-protein interaction domains, including STAT proteins, has been described.[1] […]
Fluorescence polarization assays
Competitive fluorescence polarization (FP) assays for STAT1,[2] […] Briefly, peptide binding to proteins was analyzed using the following carboxyfluorescein (CF) -labelled pepti des at a concentration of 10 nM: STAT1: 5-CF-GpYDKPHVL-OH, STAT3: 5-CF-GpYLPQTV -NH2, STAT4: 5-CF-GpYLPQNID-OH, STAT5a and STAT5b: 5-CF-GpYLVLDKW-OH, STAT6: 5- […]
CFGp[…]-OH. […] FP was measured using an Infinite F500 plate reader (Tecan) and measurements were converted into percent inhibition according to the binding curve equation. Curves were plotted and best fits calculated using OriginPro […]
Homogenous time-resolved fluorescence (HTRF) assays for STAT3, STAT4, STAT5a and STAT5b were carried out using Cisbio Monoclonal Antibody Anti-6His-Tb Gold as the fluorescence donor (Perkin Elmer) and the corresponding CF-labelled binding peptide as the acceptor. […] The average reading from 3 wells was obtained. […]

| Structure (SMILES) | IC50 |
| --- | --- |
| Cc1nc(/N=N/c2ccc(S(=O)(=O)O)cc2S(=O)(=O)O)c(COP(=O)(O)O)c(C=O)c1O [PPADS, pyridoxalphosphate‐6‐azophenyl‐2',4'‐disulfonic acid] | 1.41 ± 0.35 µM |
| Cc1nc(/N=N/c2cc(S(=O)(=O)O)ccc2S(=O)(=O)O)c(COP(=O)(O)O)c(C=O)c1O [iso‐PPADS] | 8.2 ± 0.7 µM |
